In patent US8153630B2, “Kinase inhibitors” (Miikana Therapeutics, Inc., priority 2004, dated 2012):

Tests used:
recombinant Aurora A = target: T1, recombinant Aurora A (Homo sapiens, UniProt O14965); test: PanVera Z'-Lyte Aurora kinase assay; format: biochemical; conditions: Z'-Lyte Ser/Thr 1 peptide 2 μM, ATP 10 μM, 1 h
T1 construct: purchased Upstate, Lake Placid, N.Y
T1 sequence (O14965 1-403): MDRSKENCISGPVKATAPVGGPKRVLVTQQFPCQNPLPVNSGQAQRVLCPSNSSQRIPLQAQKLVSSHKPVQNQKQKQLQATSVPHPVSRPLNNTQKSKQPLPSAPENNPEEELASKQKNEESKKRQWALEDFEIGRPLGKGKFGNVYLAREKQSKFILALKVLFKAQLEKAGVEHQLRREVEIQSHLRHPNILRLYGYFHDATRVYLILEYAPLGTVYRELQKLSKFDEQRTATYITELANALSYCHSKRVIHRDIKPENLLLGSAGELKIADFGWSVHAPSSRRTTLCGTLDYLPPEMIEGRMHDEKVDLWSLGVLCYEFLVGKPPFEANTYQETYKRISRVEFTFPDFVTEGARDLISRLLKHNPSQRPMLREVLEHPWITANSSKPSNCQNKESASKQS
Method: Compounds 7-14 above were tested for their potency against recombinant Aurora A (Upstate, Lake Placid, N.Y.) using the PanVera Z'-Lyte kinase assay kit—Ser/Thr 1 peptide (Invitrogen, Carlsbad, Calif.). Assays were carried out in kinase assay buffer (50 mM HEPES, pH 7.5, 10 mM MgCl2, 5 mM EGTA, 0.05% Brij-35, 2 mM DTT). Test compounds were initially dissolved in DMSO at 100× the highest tested concentration, then serially diluted to 4× test concentrations in kinase assay buffer. Next, Aurora A (final concentration 200-500 ng/mL), Z′-Lyte Ser/Thr 1 peptide (final concentration 2 μM) and ATP (final concentration 10 μM) were added according to the manufacturer's instructions. Assays were carried out in half-area 96-well white polystyrene assay plates (Corning, Corning, N.Y.) in a final volume of 20 μL. The reaction was allowed to proceed for 1 h at room temperature in the dark, at which point the development reagent and stop reagent were added according to the manufacturer's instructions. Coumarin (Ex. 400 nm, Em. 465 nm) and fluorescein (Ex. 400 nm, Em. 565 nm) fluorescence values were measured on a SpectraFluor Plus plate reader (Tecan, Durham, N.C.). The emission ratio (coumarin/fluorescein) was determined and used to calculate the percent phosphorylation for each well. Wells containing substrate but no kinase and wells containing a phosphopeptide control were used to set 0% and 100% phosphorylation values, respectively. Typically 20-40% of the substrate was phosphorylated in wells without inhibitor. Dose-response curves of relative Aurora A activity vs. inhibitor concentration were plotted with Grafit (Erithacus Software, Horley, Surrey, UK) and used to calculate IC50 values.

HCT 116 Cells = test: Aurora kinase whole cell cytotoxicity assay: Sulforhodamine B; format: cell-based; conditions: Homo sapiens, HCT116, SRB staining, 96 hours incubation
Method: Human tumour-derived cell lines, HCT116 or MCF7 (ATCC) were plated in a 96 well plate in DMEM containing 10% fetal bovine serum and 2 mM L-glutamine at a density of 500 HCT116 cells or 1,000 MCF7 cells per well and incubated at 37° C., 5% CO2, for 24 hours prior to the addition of experimental compounds. Compounds were added using the dilution series indicated to duplicate plates and the cells were incubated in media plus compound for 96 hours. An additional plate was fixed in 10% TCA at the time of the addition of compound to provide a measurement of the cell population at time zero, the time of drug addition. Following the 96 hour incubation, cells were fixed in situ by gently aspirating off the culture media and then adding 50 ul of ice cold 10% TCA per well and incubation at 4° C. for 60 minutes. The plates were washed with tap water five times and allowed to air dry for 5 minute. 50 ul of a 0.4% (w/v) Sulforhodamine B solution in 1% (v/v) acetic acid was added per well and the cells were incubated for 30 minutes at room temperature. Following staining, plates were washed four times with 1% acetic acid to remove any unbound dye and then allowed to air dry for 5 minutes. The stain was solubilized with 100 ul of 10 mM Tris pH 10.5 per well and placed on an orbital rotator for 5 minutes. The absorbance was read at 570 nm. Percentage growth was calculated using the absorbance readings from the time zero plate (Tz) and the dilution series plate […] which included a column of cells grown in media without compound as a control (C) using the formulas: [(Ti−Tz)/(C−Tz)]×100 for concentrations for which Ti>/=Tz [(Ti−Tz)/Tz]×100 for concentrations for which Ti<Tz.
Three dose response parameters were calculated for each experimental agent. Growth inhibition of 50% (GI50) was calculated from [(Ti−Tz)/(C−Tz)]×100=50, which was the drug concentration resulting in a 50% reduction in the net protein increase (as measured by SRB staining) in control cells during the drug incubation. The drug concentration resulting in total growth inhibition (TGI) was calculated from Ti=Tz. The LC50 (concentration of drug resulting in a 50% reduction in the measured protein at the end of the drug treatment as compared to that at the beginning) indicating a net loss of cells following treatment ws calculated from [(Ti−Tz)/Tz]×100=−50. Values are calculated for each of these three parameters if the level of activity was reached; however, if the effect was not reached or was exceeded, the value for that parameter is expressed as greater or less than the maximum or minimum concentration tested.

| SMILES | IC50 (recombinant Aurora A) | GI50 (HCT 116 Cells) |
| --- | --- | --- |
| COC(=O)c1nc(Sc2ccc(NC(=O)C3CC3)cc2)nc(Nc2cc(C)[nH]n2)c1N [Compound 7, Methyl 2-(4-cyclopropanecarboxamidophenylsulfanyl)-5-amino-6-(5-methylpyrazol-3-ylamino)-4-pyrimidinecarboxylate] | < 100 nM | 100 to 1000 nM |
| Cc1cc(Nc2nc(Sc3ccc(NC(=O)C4CC4)cc3)nc(C(=O)O)c2N)n[nH]1 [Compound 8, 2-(4-Cyclopropanecarboxamidophenylsulfanyl)-5-amino-6-(5-methylpyrazol-3-ylamino)-4-pyrimidinecarboxylic acid] | < 100 nM | – |
| CNC(=O)c1nc(Sc2ccc(NC(=O)C3CC3)cc2)nc(Nc2cc(C)[nH]n2)c1N [Compound 9, Methyl 2-(4-cyclopropanecarboxamidophenylsulfanyl)-5-amino-6-(5-methylpyrazol-3-ylamino)-4-pyrimidinecarboxamide] | < 100 nM | – |
| Cc1cc(Nc2nc(Sc3ccc(NC(=O)C4CC4)cc3)nc(C(=O)NCCN(C)C)c2N)n[nH]1 [Compound 12, N-[2-(N,N-dimethylamino)ethyl]-2-(4-cyclopropane-carboxamidophenylsulfanyl)-5-amino-6-(5-methylpyrazol-3-ylamino)-4-pyrimidine carboxamide] | < 100 nM | 1000 to 10000 nM |
| CCOC(=O)c1nc(S(=O)(=O)c2ccc(NC(=O)C3CC3)cc2)nc(Nc2cc(C)[nH]n2)c1N [Compound 13, Ethyl 2-(4-cyclopropanecarboxamidophenylsulfonyl)-5-amino-6-(5-methylpyrazol-3-ylamino)-4-pyrimidinecarboxylate] | < 100 nM | – |
| CCOC(=O)c1nc([S+]([O-])c2ccc(NC(=O)C3CC3)cc2)nc(Nc2cc(C)[nH]n2)c1N (stereo not drawn) [Compound 14, ethyl 2-(4-cyclopropane-carboxamidophenylsulfinyl)-5-amino-6-(5-methylpyrazol-3-ylamino)-4-pyrimidinecarboxylate] | < 100 nM | – |
| Cc1cc(Nc2nc(Sc3ccc(NC(=O)C4CC4)cc3)nc(C(=O)NCCN3CCCCC3)c2N)n[nH]1 [Compound 17, N-(2-Piperidin-1-ylethyl) 2-(4-cyclopropanecarboxamidophenylsulfanyl)-5-amino-6-(5-methylpyrazol-3-ylamino)-4-pyrimidinecarboxamide] | < 100 nM | 100 to 1000 nM |
| Cc1cc(Nc2nc(Sc3ccc(NC(=O)C4CC4)cc3)nc(C(=O)OCCN3CCOCC3)c2N)n[nH]1 [Compound 18, 2-Morpholin-4-ylethyl 2-(4-cyclopropanecarboxamidophenylsulfanyl)-5-amino-6-(5-methylpyrazol-3-ylamino)-4-pyrimidinecarboxylate] | < 100 nM | 1000 to 10000 nM |
| Cc1cc(Nc2nc(Sc3ccc(NC(=O)C4CC4)cc3)nc(C(=O)OC3CCOCC3)c2N)n[nH]1 [Compound 19, Tetrahydro-2H-pyran-4-yl 2-(4-cyclopropanecarboxamidophenylsulfanyl)-5-amino-6-(5-methylpyrazol-3-ylamino)-4-pyrimidinecarboxylate] | < 100 nM | 100 to 1000 nM |
| CCOC(=O)c1nc(Nc2ccc(NC(C)=O)nc2)nc(Nc2cc(C)[nH]n2)c1N [Compound 34, Ethyl 2-(6-acetylamido-3-pyridylamino)-5-amino-6-(5-methylpyrazol-3-ylamino)-4-pyrimidinecarboxylate] | 100 to 1000 nM | – |
| CCOC(=O)c1nc(Nc2ccc(NC(=O)C3CC3)cc2)nc(Nc2cc(C)[nH]n2)c1N [Compound 36, Ethyl 2-({4-[(cyclopropylcarbonyl)amino]phenyl}amino)-5-amino-6-(5-methylpyrazol-3-ylamino)-4-pyrimidinecarboxylate] | < 100 nM | 1000 to 10000 nM |
| Cc1cc(Nc2nc(Sc3ccc(NC(=O)C4CC4)cc3)nc(C(=O)Nc3ccccc3)c2N)n[nH]1 [Compound 60, N-Phenyl 2-(4-cyclopropanecarboxamidophenylsulfanyl)-5-amino-6-(5-methylpyrazol-3-ylamino)-4-pyrimidinecarboxamide] | 100 to 1000 nM | – |
